Data reported in publication PMC3814616, “BRAF inhibitors suppress apoptosis through off-target inhibition of JNK signaling” (eLife, 2013).

Key:
JNK and p38 isoforms = system: JNK and p38 isoforms; set-up: method as in Tsai et al., 2008; Bollag et al., 2010; conditions: ref Tsai et al., 2008; Bollag et al., 2010; cited from earlier work
LZK (MAP3K13) = target: T1, LZK (MAP3K13) (Homo sapiens, UniProt O43283); assay: Quantitative competitive binding assay (KINOMEscan); conditions: for remaining binding at 0.05 µM: read-out: Percent control (50 nM); for remaining binding at 0.2 µM: read-out: Percent control (200 nM); for remaining binding at 1 µM: read-out: Percent control (1000 nM); for remaining binding at 10 µM: read-out: Percent control (10 μM)
T1 construct: purchased KINOMEscan (DiscoveRx), San Diego, CA
T1 sequence (O43283 1-966): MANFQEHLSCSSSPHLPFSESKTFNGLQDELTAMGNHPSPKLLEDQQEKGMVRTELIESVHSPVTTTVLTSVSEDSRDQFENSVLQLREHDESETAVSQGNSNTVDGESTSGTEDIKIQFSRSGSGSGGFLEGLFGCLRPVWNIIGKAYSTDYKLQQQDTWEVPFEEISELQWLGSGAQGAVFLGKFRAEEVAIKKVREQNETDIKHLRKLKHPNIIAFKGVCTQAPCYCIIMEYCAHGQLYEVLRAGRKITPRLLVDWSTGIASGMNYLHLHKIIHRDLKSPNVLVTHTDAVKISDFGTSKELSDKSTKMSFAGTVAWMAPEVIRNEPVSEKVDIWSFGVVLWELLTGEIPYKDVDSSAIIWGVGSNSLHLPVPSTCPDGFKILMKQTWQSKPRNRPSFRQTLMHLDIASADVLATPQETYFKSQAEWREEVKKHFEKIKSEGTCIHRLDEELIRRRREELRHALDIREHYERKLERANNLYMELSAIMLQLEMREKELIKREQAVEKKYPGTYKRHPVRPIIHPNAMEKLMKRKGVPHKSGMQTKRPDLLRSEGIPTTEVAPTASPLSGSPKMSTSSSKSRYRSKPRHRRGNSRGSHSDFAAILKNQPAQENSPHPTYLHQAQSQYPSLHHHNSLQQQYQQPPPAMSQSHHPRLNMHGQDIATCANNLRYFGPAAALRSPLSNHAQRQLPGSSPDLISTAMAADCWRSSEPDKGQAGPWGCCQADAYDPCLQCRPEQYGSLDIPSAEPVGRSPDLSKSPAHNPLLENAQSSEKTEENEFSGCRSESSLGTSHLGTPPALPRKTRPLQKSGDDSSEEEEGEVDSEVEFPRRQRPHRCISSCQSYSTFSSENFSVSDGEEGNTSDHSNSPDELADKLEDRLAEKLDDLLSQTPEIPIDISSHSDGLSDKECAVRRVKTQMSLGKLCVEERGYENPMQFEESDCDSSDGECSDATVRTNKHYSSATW

TNIK = target: T2, TNIK (Homo sapiens, UniProt Q9UKE5); assay: as above; conditions: for remaining binding at 0.05 µM: read-out: Percent control (50 nM); for remaining binding at 0.2 µM: read-out: Percent control (200 nM); for remaining binding at 1 µM: read-out: Percent control (1000 nM); for remaining binding at 10 µM: read-out: Percent control (10 μM)
T2 construct: purchased KINOMEscan (DiscoveRx), San Diego, CA
T2 sequence (Q9UKE5 whole entry): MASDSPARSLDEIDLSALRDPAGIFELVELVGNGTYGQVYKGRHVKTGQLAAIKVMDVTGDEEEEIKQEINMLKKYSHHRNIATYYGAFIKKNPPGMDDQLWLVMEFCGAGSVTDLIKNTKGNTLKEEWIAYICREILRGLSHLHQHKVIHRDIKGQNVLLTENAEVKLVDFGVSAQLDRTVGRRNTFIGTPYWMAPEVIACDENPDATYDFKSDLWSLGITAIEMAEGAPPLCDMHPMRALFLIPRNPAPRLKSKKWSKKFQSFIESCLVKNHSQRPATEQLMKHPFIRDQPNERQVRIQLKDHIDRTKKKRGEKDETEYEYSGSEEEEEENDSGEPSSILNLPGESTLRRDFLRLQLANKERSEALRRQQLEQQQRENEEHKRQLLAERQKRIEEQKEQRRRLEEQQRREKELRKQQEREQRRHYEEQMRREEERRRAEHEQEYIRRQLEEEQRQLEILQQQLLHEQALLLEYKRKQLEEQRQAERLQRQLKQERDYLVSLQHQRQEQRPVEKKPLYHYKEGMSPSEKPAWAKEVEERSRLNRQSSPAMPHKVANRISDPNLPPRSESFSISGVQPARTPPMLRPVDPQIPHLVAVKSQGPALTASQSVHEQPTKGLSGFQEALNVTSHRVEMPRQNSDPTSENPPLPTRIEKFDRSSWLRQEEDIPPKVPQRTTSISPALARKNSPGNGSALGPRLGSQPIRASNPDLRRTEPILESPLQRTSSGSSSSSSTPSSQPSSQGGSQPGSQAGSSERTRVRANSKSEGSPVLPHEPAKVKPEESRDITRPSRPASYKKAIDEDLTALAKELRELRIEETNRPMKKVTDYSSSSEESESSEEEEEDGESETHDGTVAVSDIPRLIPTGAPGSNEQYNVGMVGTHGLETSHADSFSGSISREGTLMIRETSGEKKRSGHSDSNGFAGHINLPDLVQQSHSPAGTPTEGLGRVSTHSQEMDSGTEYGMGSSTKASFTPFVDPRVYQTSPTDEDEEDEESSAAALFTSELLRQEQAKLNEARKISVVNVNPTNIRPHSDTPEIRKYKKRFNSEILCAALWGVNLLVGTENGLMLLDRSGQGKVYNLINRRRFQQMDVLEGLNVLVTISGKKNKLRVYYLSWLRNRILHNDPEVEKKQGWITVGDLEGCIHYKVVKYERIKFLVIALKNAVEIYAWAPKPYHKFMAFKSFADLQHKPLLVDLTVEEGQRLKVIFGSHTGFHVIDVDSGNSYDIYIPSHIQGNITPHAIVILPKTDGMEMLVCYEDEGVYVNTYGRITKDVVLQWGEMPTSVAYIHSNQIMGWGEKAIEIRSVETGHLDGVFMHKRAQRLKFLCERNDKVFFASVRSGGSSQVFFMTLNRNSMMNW

SRMS = SRMS (Homo sapiens, UniProt Q9H3Y6); assay: as above; conditions: for IC50: estimated Kd, averaged pointwise estimates, transformed Hill equation, read-out: Calculated estimate of IC50; for remaining binding at 0.05 µM: read-out: Percent control (50 nM); for remaining binding at 0.2 µM: read-out: Percent control (200 nM); for remaining binding at 1 µM: read-out: Percent control (1000 nM); for remaining binding at 10 µM: read-out: Percent control (10 μM)
Chain of SRMS (Q9H3Y6 whole entry): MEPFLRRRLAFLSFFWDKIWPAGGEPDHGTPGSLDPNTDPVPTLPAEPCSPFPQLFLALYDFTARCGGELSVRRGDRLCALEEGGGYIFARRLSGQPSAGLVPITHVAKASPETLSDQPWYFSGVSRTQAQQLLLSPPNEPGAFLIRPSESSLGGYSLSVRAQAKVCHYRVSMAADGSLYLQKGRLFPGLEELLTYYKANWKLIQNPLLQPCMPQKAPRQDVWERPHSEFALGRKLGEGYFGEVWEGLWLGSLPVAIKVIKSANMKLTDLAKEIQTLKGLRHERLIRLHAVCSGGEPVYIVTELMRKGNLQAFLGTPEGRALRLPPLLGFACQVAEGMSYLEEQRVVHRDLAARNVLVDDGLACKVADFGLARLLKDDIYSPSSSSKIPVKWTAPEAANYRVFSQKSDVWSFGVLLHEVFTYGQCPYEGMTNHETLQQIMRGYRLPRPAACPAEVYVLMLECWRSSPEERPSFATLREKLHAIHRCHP

ASK2 (MAP3K6) = target: T3, ASK2 (MAP3K6) (Homo sapiens, UniProt O95382); assay: as above; conditions: for remaining binding at 0.05 µM: read-out: Percent control (50 nM); for remaining binding at 0.2 µM: read-out: Percent control (200 nM); for remaining binding at 1 µM: read-out: Percent control (1000 nM); for remaining binding at 10 µM: read-out: Percent control (10 μM)
T3 construct: purchased KINOMEscan (DiscoveRx), San Diego, CA
T3 sequence (O95382 1-1288): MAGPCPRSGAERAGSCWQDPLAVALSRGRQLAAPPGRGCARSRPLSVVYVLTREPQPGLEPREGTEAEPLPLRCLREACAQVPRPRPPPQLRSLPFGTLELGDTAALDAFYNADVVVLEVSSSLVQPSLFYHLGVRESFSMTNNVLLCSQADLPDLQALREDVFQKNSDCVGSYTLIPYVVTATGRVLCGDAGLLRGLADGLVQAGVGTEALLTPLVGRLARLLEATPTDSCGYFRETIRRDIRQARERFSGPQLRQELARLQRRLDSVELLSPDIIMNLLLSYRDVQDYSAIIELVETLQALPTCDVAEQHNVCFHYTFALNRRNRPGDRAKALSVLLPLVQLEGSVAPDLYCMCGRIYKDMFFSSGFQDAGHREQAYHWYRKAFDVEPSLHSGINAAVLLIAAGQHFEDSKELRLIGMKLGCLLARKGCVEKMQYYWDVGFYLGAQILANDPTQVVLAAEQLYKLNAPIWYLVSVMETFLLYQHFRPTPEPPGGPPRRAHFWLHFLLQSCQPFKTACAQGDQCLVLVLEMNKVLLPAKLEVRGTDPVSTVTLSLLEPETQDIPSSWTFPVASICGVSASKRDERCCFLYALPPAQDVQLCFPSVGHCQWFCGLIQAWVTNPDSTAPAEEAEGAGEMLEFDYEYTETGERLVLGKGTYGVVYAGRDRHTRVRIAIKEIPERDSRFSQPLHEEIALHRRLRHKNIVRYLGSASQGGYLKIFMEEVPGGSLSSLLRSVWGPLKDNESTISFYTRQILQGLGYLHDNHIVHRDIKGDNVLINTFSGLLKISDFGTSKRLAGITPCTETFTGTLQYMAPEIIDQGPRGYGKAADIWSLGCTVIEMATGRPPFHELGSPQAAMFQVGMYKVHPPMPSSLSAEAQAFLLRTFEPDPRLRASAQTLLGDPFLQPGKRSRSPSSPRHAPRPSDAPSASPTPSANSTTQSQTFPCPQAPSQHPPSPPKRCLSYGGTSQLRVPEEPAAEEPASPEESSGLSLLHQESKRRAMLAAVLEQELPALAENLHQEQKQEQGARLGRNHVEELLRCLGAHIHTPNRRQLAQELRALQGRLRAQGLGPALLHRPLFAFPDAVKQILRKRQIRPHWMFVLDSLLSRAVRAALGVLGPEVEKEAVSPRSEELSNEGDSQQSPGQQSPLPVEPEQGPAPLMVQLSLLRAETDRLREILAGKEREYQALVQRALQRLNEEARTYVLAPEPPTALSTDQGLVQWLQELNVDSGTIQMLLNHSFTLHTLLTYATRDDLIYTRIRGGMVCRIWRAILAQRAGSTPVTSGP

MLK1 (MAP3K9) = target: T4, MLK1 (MAP3K9) (Homo sapiens, UniProt P80192); assay: as above; conditions: for IC50: estimated Kd, averaged pointwise estimates, transformed Hill equation, read-out: Calculated estimate of IC50; for remaining binding at 0.05 µM: read-out: Percent control (50 nM); for remaining binding at 0.2 µM: read-out: Percent control (200 nM); for remaining binding at 1 µM: read-out: Percent control (1000 nM); for remaining binding at 10 µM: read-out: Percent control (10 μM)
T4 construct: purchased KINOMEscan (DiscoveRx), San Diego, CA
T4 sequence (P80192 whole entry): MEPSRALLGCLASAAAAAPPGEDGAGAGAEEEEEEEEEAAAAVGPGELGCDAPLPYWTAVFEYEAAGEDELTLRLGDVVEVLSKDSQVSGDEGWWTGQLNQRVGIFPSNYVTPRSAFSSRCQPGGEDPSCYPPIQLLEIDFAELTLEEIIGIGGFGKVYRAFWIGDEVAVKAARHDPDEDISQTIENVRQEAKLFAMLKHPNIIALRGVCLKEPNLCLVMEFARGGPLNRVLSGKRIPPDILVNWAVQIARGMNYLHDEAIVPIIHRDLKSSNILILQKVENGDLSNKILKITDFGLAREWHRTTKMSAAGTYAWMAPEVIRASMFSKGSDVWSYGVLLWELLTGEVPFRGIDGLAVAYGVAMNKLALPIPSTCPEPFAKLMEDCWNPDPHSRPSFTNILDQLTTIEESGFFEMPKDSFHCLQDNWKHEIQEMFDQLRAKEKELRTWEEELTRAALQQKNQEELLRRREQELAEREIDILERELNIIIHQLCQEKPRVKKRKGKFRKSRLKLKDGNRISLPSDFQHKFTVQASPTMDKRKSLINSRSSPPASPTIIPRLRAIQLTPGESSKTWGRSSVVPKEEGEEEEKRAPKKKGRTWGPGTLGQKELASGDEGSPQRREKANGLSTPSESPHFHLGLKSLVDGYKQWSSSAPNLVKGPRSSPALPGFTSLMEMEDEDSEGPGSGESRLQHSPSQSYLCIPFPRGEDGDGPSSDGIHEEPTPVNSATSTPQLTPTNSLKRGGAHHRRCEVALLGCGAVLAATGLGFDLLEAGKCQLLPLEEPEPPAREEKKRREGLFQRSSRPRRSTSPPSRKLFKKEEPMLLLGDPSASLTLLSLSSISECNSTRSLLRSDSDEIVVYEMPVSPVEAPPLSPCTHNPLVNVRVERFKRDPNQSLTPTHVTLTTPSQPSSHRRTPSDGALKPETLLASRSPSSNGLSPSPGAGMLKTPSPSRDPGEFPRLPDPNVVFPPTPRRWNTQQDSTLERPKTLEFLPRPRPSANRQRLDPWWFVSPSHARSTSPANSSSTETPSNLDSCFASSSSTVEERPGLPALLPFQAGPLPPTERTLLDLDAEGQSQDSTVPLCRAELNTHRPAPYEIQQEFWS

| Compound | direct inhibition of JNK and p38 isoforms (JNK and p38 isoforms) | remaining binding at 0.05 µM (LZK (MAP3K13)) | remaining binding at 0.2 µM (LZK (MAP3K13)) | remaining binding at 1 µM (LZK (MAP3K13)) | remaining binding at 10 µM (LZK (MAP3K13)) | remaining binding at 0.05 µM (TNIK) | remaining binding at 0.2 µM (TNIK) | remaining binding at 1 µM (TNIK) | remaining binding at 10 µM (TNIK) | IC50 (SRMS) | remaining binding at 0.05 µM (SRMS) | remaining binding at 0.2 µM (SRMS) | remaining binding at 1 µM (SRMS) | remaining binding at 10 µM (SRMS) | remaining binding at 0.05 µM (ASK2 (MAP3K6)) | remaining binding at 0.2 µM (ASK2 (MAP3K6)) | remaining binding at 1 µM (ASK2 (MAP3K6)) | remaining binding at 10 µM (ASK2 (MAP3K6)) | IC50 (MLK1 (MAP3K9)) | remaining binding at 0.05 µM (MLK1 (MAP3K9)) | further results |
| --- | --- | --- | --- | --- | --- | --- | --- | --- | --- | --- | --- | --- | --- | --- | --- | --- | --- | --- | --- | --- | --- |
| CCCS(=O)(=O)Nc1ccc(F)c(C(=O)c2c[nH]c3ncc(Cl)cc23)c1F [PLX4720] | not significantly inhibited | 94% | 100% | 96% | 75% | 97% | 89% | 79% | 24% | 0.64 nM | 1.9% | 0.55% | 0.05% | 0% | 94% | 100% | 100% | 100% | > 10000 nM | 100% | remaining binding at 0.2 µM (MLK1 (MAP3K9)): 100%; remaining binding at 1 µM (MLK1 (MAP3K9)): 100%; remaining binding at 10 µM (MLK1 (MAP3K9)): 100% |
| CCCS(=O)(=O)Nc1ccc(F)c(C(=O)c2c[nH]c3ncc(-c4ccc(Cl)cc4)cc23)c1F [vemurafenib] | not significantly inhibited | 100% | 99% | 93% | 74% | 95% | 94% | 66% | 11% | 11.1 nM | 24% | 9.6% | 0.75% | 0% | 94% | 98% | 100% | 74% | 14000 nM | 100% | remaining binding at 0.2 µM (MLK1 (MAP3K9)): 93%; remaining binding at 1 µM (MLK1 (MAP3K9)): 97%; remaining binding at 10 µM (MLK1 (MAP3K9)): 41% |
